Source: patent US20150025002A1, “PEPTIDES AND PEPTIDE DERIVATIVES BASED ON XENIN” (UNIVERSITY OF ULSTER, priority 2012, published 2015)
Square brackets hold non-standard residues; d marks the D form. Ends that are not written are not given here.

Key:
[1] = Incubation in the presence of murine plasma (MALDI-ToF MS, ESI MS); conditions: 37° C., 50 mM TEA-HCl pH 7.8, up to 24 hours
Procedure: MALDI-ToF Mass Spectrometry: Following solid phase extraction, samples for each degradation time-point were subsequently mixed with α-cyano-4-hydroxycinnamic acid and applied to a Voyager-DE BioSpectrometry Workstation and mass-to-charge (m/z) ratio verses peak intensity recorded.
ESI Mass Spectrometry: Samples for each degradation time-point were applied to the ESI Ion-trap MS/MS utilizing a mass-to-charge range (m/z) of 0-2000. Resulting mass spectra were analyzed with the turbo sequest algorithm and degradation fragments sequenced against a fasta database containing the native xenin sequence.

high fat fed mice = test: Acute glucose homeostasis and insulin secretion in high fat fed mice; assay type: in vivo; conditions: 25 nmol/kg i.p. with glucose 18 mmol/kg
Procedure: (§1) NIH Swiss male mice (6 weeks old) were housed in an air conditioned room 22±2° C. with a 12 h light: 12 h dark cycle. Animals were maintained on a high fat diet 16 weeks prior to commencement and throughout the study. Drinking water and high fat diet was freely available. All animal studies were performed in accordance with the UK Animals (Scientific Procedures) Act 1986 under project licences held by the inventor.
Freely fed animals were divided into weight-matched groups (n=8) and administered, by intraperitoneal injection, glucose alone (18 mmol/kg body weight) or glucose in combination with each peptide (25 nmol/kg body weight). Blood samples were collected immediately prior to (t=0) and 15, 30 and 60 min post-injection. Whole blood was used to measure glucose values using an Acensia CONTOUR Microfill Blood Glucose Meter and Acensia MICROFILL test strips (Bayer Healthcare, UK). Blood samples for measurement of insulin was collected into fluorine/heparin microcentrifuge tubes (Sarstedt, Numbercht, Germany) at times indicated above and immediately centrifuged using a Beckman microcentrifuge (Beckman Instruments, UK) for 5 min at 13,000 g. Plasma was then aliquoted and stored at −20° C. prior to insulin determination by RIA.

[2] = target: Dipeptidyl peptidase-4 (DPP-4) (Homo sapiens, UniProt P27487); conditions: pH 7.8
Chain of Dipeptidyl peptidase-4 (DPP-4) (P27487 whole entry, species assumed): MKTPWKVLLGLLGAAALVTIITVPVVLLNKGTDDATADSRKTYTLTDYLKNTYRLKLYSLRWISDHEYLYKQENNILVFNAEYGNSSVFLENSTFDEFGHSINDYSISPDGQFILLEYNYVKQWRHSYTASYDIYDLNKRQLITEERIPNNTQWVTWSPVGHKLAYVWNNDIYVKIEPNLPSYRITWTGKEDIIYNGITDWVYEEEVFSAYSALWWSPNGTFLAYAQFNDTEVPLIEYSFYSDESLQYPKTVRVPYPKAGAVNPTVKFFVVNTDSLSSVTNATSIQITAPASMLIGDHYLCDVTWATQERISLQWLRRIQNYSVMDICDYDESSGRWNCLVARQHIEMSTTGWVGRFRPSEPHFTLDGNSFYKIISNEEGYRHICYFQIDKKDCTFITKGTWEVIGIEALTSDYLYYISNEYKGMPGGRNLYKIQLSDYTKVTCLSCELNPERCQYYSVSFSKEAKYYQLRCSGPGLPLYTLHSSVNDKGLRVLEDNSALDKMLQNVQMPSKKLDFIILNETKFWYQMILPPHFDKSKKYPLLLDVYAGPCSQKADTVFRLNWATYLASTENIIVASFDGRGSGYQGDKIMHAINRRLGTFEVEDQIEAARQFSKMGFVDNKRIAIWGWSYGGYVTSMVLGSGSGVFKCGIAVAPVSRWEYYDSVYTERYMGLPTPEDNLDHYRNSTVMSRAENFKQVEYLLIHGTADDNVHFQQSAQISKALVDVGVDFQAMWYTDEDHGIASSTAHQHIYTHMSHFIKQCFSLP
Procedure: Dipeptidyl peptidase-4 (DPP-4) was used to determine the degradation properties and identify any degradation products. Each peptide (30 μg) was incubated at 37° C. DPP-4 with 455 μl 50 mM triethanolamine-HCl (TEA) pH 7.8 buffer, and the reaction was stopped with 5 μl 10% (v/v) TFA. Time 0, 15, 30, 60, 120, 240 and 480 minutes degradation profiles were measured and HPLC was carried out to identify the degradation pattern and degradation products.

high-fat fed mice = test: Persistent glucose-lowering in high-fat fed mice, peptide given 4 hours before glucose load; assay type: in vivo; conditions: 25 nmol/kg i.p. 4 hours before glucose load
Procedure: as §1
Freely fed animals were divided into weight-matched groups (n=8) and administered, by intraperitoneal injection, saline vehicle (0.9% NaCl) or saline in combination with each peptide (25 nmol/kg body weight). Food was then immediately withdrawn and 4 hours later all mice received an intraperitoneal injection of glucose alone (18 mmol/kg body weight). Blood samples were collected immediately prior to (t=0) and 15, 30 and 60 min post glucose injection. Whole blood was used to measure glucose values using an Acensia CONTOUR Microfill Blood Glucose Meter and Acensia MICROFILL test strips (Bayer Healthcare, UK).

BRIN-BD11 cells = test: In vitro insulin secretion in BRIN-BD11 cells (radioimmunoassay); assay type: cell-based, rat; conditions: 5.6 mM glucose; for insulin secretion compared to glucose alone, FIG. 1b experiment: P<0.05 to P<0.001
Procedure: BRIN-BD11 cells (ECACC accession number 100330033) were cultured in RPMI 1640 tissue culture medium containing 10% (v/v) foetal calf serum, 1% (v/v) antibiotics (100 U/ml of penicillin and 0.1 mg/ml of streptomycin). BRIN-BD11 cells were originally derived by means of electrofusion of a New England Deaconess Hospital (NEDH) rat pancreatic beta-cell line with an RINm5F cell line in order to produce an immortal, glucose sensitive, insulin secreting cell line (McClenaghan etal., Diabetes. 1996 August; 45(8):1132-40). All cells were maintained in sterile tissue culture flasks (Corning Glass Works, Corning, N.Y., USA) at 37° C. in an atmosphere of 5% CO2 and 95% air, using an LEEC incubator (Laboratory Technical Engineering, Nottingham, UK).
BRIN-BD11 cells were seeded into 24-well plates at a density of 1×10^5 cells and allowed to attach to the wells overnight in an incubator. Before acute studies of insulin were carried out, the cells underwent a 40 min preincubation period at 37° C. with 1.0 ml of Krebs Ringer bicarbonate buffer (115 mM NaCl, 4.7 mM KCl, 1.28 mM CaCl2.2H2O, 1.2 mM KH2PO4, 1.2 mM MgSO4.7H2O, 10 mM NaHCO3, 5 g/l bovine serum albumin (BSA), pH 7.4) supplemented with 1.1 mM glucose. […] The incubations were performed for 20 min at 37° C., after which the buffer solution was removed and 2×200 μl aliquots stored at −20° C. until measurement of insulin levels by radioimmunoassay (RIA).

Row | Substance | degradation in murine plasma [1] | plasma glucose AUC vs glucose alone (high fat fed mice; 0-60 min) | plasma glucose excursion vs glucose alone (high fat fed mice; 0-60 min, FIG. 2a) | plasma insulin response vs glucose alone (high fat fed mice; FIG. 2b/2f) | degradation by DPP-IV [2] | effect on plasma glucose when administered 4 hours previously (high-fat fed mice) | insulin secretion, peptide alone (BRIN-BD11 cells; 20 min, 10^-12 to 10^-6 M, FIG. 1a/1e) | insulin secretion compared to glucose alone, FIG. 1b experiment (BRIN-BD11 cells) | insulin production compared to glucose alone, concentrations with significant effect (BRIN-BD11 cells; peptide alone, FIG. 1a/1e)
1 | MLTQFETQSAQVQGLSFHPQQPWIL [xenin-Gln] | stable in the presence of murine plasma | – | – | – | – | – | – | – | –
2 | MLTKFETKSARVKGLSFHPKRPWIL-OH [native xenin] | – | failed to reach overall significance | not significantly different to animals receiving glucose alone | not significantly different to animals receiving glucose alone | completely resistant to degradation by DPP-IV | did not elicit any significant effects on plasma glucose | stimulated insulin secretion in a concentration-dependent manner | significantly stimulated insulin secretion in a concentration-dependent manner | significantly enhanced insulin production at concentrations of 10^−8 and 10^−6 M
3 | (D-Ala^2)GIP: YAEGTFISDYSIAMDKIHQQDFVNWLLAQKGKKNDWKHNITQ, alanine at position 2 is a D-amino acid (Y[dA]EGTFISDYSIAMDKIHQQDFVNWLLAQKGKKNDWKHNITQ) | – | – | – | – | – | – | – | significantly stimulated insulin secretion in a concentration-dependent manner | –
